Laboratory results as given in patent US20030162783A1 (priority 1999, published 2003).

Key:
[1] = target: T1, NMDA receptor glycine site (Rattus norvegicus, UniProt P35439); assay: Test A: Inhibition of binding of [3H]-MDL105,519 to brain membranes; settings: [3H]MDL105,519 1.2 nM, brain membranes (rat and human membranes described; table does not say which)
T1 construct: brain membranes bearing the receptor; tissue Analytical Biological Services Inc; host or cells: rat brain membranes (cerebral cortex and hippocampus, male Sprague Dawley rats)
Text: Test A: Inhibition of Binding of [^3H]-MDL105,519:
Binding of compounds to the NMDA receptor glycine site may be assessed by measuring the ability of test compounds to inhibit the binding of tritiated MDL105,519 to brain membranes bearing the receptor.
Briefly, fresh brain tissue including cerebral cortex and hippocampus from male Sprague Dawley rats was homogenized in 0.32 M sucrose and centrifuged at low speed to separate cellular membranes from other cellular components. The membranes were then washed 3 times using deionized water, followed by treatment with 0.04% Triton X-100. Finally, membranes were washed six times in 50 mM Tris citrate buffer, pH 7.4, and frozen at −80° C. until use.
[^3H]MDL105,519 (72 Ci/mmol) was purchased from Amersham. Cold MDL105,519 was purchased from Sigma/RBI. […] On the day of the experiment, brain membranes were thawed at room temperature and suspended in 50 mM tris acetate buffer, pH 7.4 (“TAB”). Seventy-five micro grams per milliliter protein (by using the BioRad dye) were used for competition binding. The experiments were carried out using 96-well plates. […] Non specific binding was determined by using 100 μM of unlabeled MDL105,519. […] After incubation, unbound [^3H]MDL105,519 was removed by filtration onto GF/B Unifilter plates using a Packard harvester. Filters were washed four times with ice cold TAB (total of 1.2 mL buffer). The plates were dried overnight at room temperature and bound radioactivity was measured on a Packard TopCount after the addition of 45 μL per well of the MICROSCINT O.
Human brain membranes were obtained from Analytical Biological Services Inc., and assays were performed as described for rat membranes.
Data was analyzed using a Microsoft Excel spreadsheet and GraphPad Prizm software and potency of compounds is expressed as the Ki (nM).

[2] = system: Chronic Constriction Injury (CCI) rats, thermal hyperalgesia; assay: Test C: Neuropathic pain model (Chronic Constriction Injury), thermal hyperalgesia paw-withdrawal; assay type: in vivo; settings: Rattus norvegicus; for inhibition in vivo at 30 mg/kg/day / inhibition in vivo at 15 mg/kg/day: oral t.i.d., read-out: Test C (% Inh.): percent decrease in hyperalgesia at the MED; for minimal effective dose: po, 120 h, orally three times daily for 5 days, read-out: Test C MED (minimum effective dose)
Text: Test C: Neuropathic Pain Model (Chronic Constriction Injury):
(Mean of vehicle group−Mean of compound group)/(Mean of vehicle group)×100

[3] = system: formalin-induced nociceptive behaviors in rats; assay: Test B: Formalin test (formalin-induced nociceptive behaviors, paw flinches); assay type: in vivo, rat; settings: dosed three hours prior to formalin; for Test B First phase Dose (% Inh.): % inhibition of nociceptive response: first phase (0-5 min); for Test B Second phase Dose (% Inh.): % inhibition of nociceptive response: second phase (20-35 min)
Protocol: In the test, two distinctive phases of formalin-induced behaviors are observed. A first phase response, caused by acute nociception to the noxious chemical (formalin) injected into the paw, occurs between zero and five minutes. […] After the quiescent period a second phase response, caused by sensitization of the central neurons in the dorsal horn, occurs after 15 minutes and lasts up to 60 minutes. Sensitization of the central neurons in the spine augments a noxious afferent input and causes a stronger pain barrage to be transmitted to the brain. Therefore, inhibition of the second phase response indicates a central mechanism of drug action.
The procedure for the formalin test is as follows: male rats are placed in a plexiglass chamber and observed for 30-45 min. to observe their baseline activity. Animals are either pretreated with vehicle or with different doses of a test compound. Animals are dosed with vehicle or test compound three hours prior to injection of 0.05 mL of sterile 1% formalin under the dorsal skin of a hind paw. The number of paw flinches (responses) during the first phase (0-5 min.) and the second phase (20-35 min.) are scored and recorded. Flinch response is compared with the mean score of a saline control group and calculated as percentage inhibition. […] First phase responses may be inhibited by compounds that act peripherally and by compounds that act centrally.
Student's t-test was used for statistical analysis to determine the significance of compound effects. Data are reported as a dose that yielded a % inhibition of a response.

| Compound | Ki [1] | inhibition in vivo at 30 mg/kg/day [2] | minimal effective dose [2] | inhibition in vivo at 15 mg/kg/day [2] | also measured |
| --- | --- | --- | --- | --- | --- |
| O=c1c2ccc(Cl)cc2[nH]c2c(O)nn(Cc3ccncn3)c(=O)c12 | 513 nM | – | – | – | – |
| CS(=O)(=O)O.O=c1c2ccc(Cl)cc2[nH]c2c(O)nn(Cc3ccncc3)c(=O)c12 [Ex. 1, 7-Chloro-4-hydroxy-2-(4-pyridylmethyl)-1,2,5,10-tetrahydropyridazino[4,5-b]quinoline-1,10-dione methanesulfonate] | – | 71% | 30 mg/kg/day | – | Test B First phase Dose (% Inh.): % inhibition of nociceptive response ([3]; dose 70 (dose unit not given)): 70 (52%); Test B Second phase Dose (% Inh.): % inhibition of nociceptive response ([3]; dose 70 (dose unit not given)): 70 (57%) |
| CS(=O)(=O)O.O=c1c2ccc(Cl)cc2[nH]c2c(O)nn(Cc3cccnc3)c(=O)c12 [Ex. 2, 7-Chloro-4-hydroxy-2-(3-pyridylmethyl)-1,2,5,10-tetrahydropyridazino[4,5-b]quinoline-1,10-dione Methanesulfonate] | – | 59% | 30 mg/kg/day | – | Test B First phase Dose (% Inh.): % inhibition of nociceptive response ([3]; dose 200 (dose unit not given)): 200 (74%); Test B Second phase Dose (% Inh.): % inhibition of nociceptive response ([3]; dose 200 (dose unit not given)): 200 (71%) |
| O=c1c2ccc(Cl)cc2[nH]c2c(O)nn(Cc3cc4ccccc4o3)c(=O)c12 [Ex. 4, 7-Chloro-4-hydroxy-2-benzo[d]furan-2-ylmethyl-1,2,5,10-tetrahydropyridazino[4,5-b]quinoline-1,10-dione] | – | 44% | 30 mg/kg/day | – | – |
| O=c1c2ccc(Cl)cc2[nH]c2c(O)nn(Cc3ccnc4ccccc34)c(=O)c12 [Ex. 5, 7-Chloro-4-hydroxy-2-(quinolin-4-ylmethyl)-1,2,5,10-tetrahydropyridazino[4,5-b]quinoline-1,10-dione] | 371 nM | – | – | – | – |
| CS(=O)(=O)O.O=c1c2ccc(Cl)cc2[nH]c2c(O)nn(Cc3cnccn3)c(=O)c12 [Ex. 6, 7-Chloro-4-hydroxy-2-(pyrazin-2-ylmethyl)-1,2,5,10-tetrahydropyridazino[4,5-b]quinoline-1,10-dione methanesulfonate] | – | 64% | 30 mg/kg/day | – | – |
| O=c1c2ccc(Cl)cc2[nH]c2c(O)nn(Cc3ccco3)c(=O)c12 [Ex. 9, 7-Chloro-4hydroxy-2-(furan-2-ylmethyl)-1 2,5,10-tetrahydropyridazino[4,5-b]quinoline-1,10-dione] | 61 nM | – | 15 mg/kg/day | 77% | melting point: > 265 °C; Test B First phase Dose (% Inh.): % inhibition of nociceptive response ([3]; dose 200 (dose unit not given)): 200 (56%); Test B Second phase Dose (% Inh.): % inhibition of nociceptive response ([3]; dose 200 (dose unit not given)): 200 (46%) |
| O=c1c2ccc(Cl)cc2[nH]c2c(O)nn(Cc3cccs3)c(=O)c12 [Ex. 11, 7-Chloro-4-hydroxy-2-(thien-2-ylmethyl)-1,2,5,10-tetrahydropyridazino[4,5-b]quinoline-1,10dione] | – | – | 15 mg/kg/day | -17% | – |
| O=c1c2ccc(Cl)cc2[nH]c2c(O)nn(Cc3ccsc3)c(=O)c12 [Ex. 12, 7-Chloro-4-hydroxy-2-(thien-3-ylmethyl)-1,2,5,10-tetrahydropyridazino[4,5-b]quinoline-1,10-dione] | – | – | 15 mg/kg/day | 17% | – |
| O=c1c2ccc(Cl)cc2[nH]c2c(O)nn(Cc3cc4ccccc4s3)c(=O)c12 [Ex. 13, 7-Chloro-4-hydroxy-2-(benzo[b]thien-2-ylmethyl)-1,2,5,10-tetrahydropyridazino[4,5-b]quinoline-1,10-dione] | – | – | 15 mg/kg/day | 1% | – |
| O=c1c2ccc(Cl)cc2[nH]c2c(O)nn(Cc3ncc[nH]3)c(=O)c12 [Ex. 15, 7-Chloro-4-hydroxy-2-(imidazol-2-ylmethyl)-1,2,5,10-tetrahydropyridazino[4,5-b]quinoline-1,10-dione] | 103 nM | – | – | – | – |
